Experimental findings from the supplement of paper PMC11061612 are described below.

What all share (assay): Bliss excess, mean over the matrix (fraction); higher = more synergy
The test system of one assay is AM-38 (Glioblastoma). An outline of the steps: (§1)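 After 24 hours at 37°C and 5% CO2 in 1536-well plates, cells in DMEM/F12 or RPMI plus 10% FBS received two-drug dose matrices for 72 hours. Viability came from CellTiter-Glo 2.0 luminescence and was scaled as inhibition, anchored at 0 by vehicle wells and at 1 by blank wells. Combination Emax is taken as the second-highest inhibition in the matrix, and Bliss excess as the observed combination effect less EA + EB − EA·EB, with EA and EB the single-agent effects.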

For assay [1], the system named is CL-11 (Colorectal Carcinoma). In a few lines:
as §1

Assay [2] deals with IA-LM (Non-Small Cell Lung Carcinoma). In a few lines:
as §1

For assay [3], the system named is KP-4 (Pancreatic Carcinoma). In a few lines:
as §1

In assay [4] the test system is MOLT-13 (T-Lymphoblastic Leukemia). An outline of the steps:
as §1

Assay [5] deals with NMC-G1 (Low Grade Glioma). An outline of the steps:
as §1

For assay [6], the system named is OAW-28 (Ovarian Carcinoma). In a few lines: as §1
In assay [7] the test system is P30-OHK (B-Lymphoblastic Leukemia). In a few lines: as §1
Assay [8] has as its system RCC-JW (Kidney Carcinoma). An outline of the steps: as §1
Assay [9] deals with SAT (Head and Neck Carcinoma). In a few lines:
as §1

The test system of assay [10] is SK-CO-1 (Colorectal Carcinoma). In a few lines: as §1
The test system of another assay is SK-N-SH (Neuroblastoma). An outline of the steps:
as §1

The test system of assay [11] is SNU-423 (Hepatocellular Carcinoma). An outline of the steps: as §1
Assay [12] deals with SiHa (Cervical Carcinoma). In a few lines:
as §1

As to `COc1cccc(OCCCN)c1-c1cc(Nc2cnc(C#N)cn2)n[nH]1` [Prexasertib] + O=C(c1cc(Cc2n[nH]c(=O)c3ccccc23)ccc1F)N1CCN(C(=O)C2CC2)CC1 [Olaparib] (first compound max 1 µM, 7x7, partner max 10 µM), the Bliss excess with AM-38 (Glioblastoma) was 0.0359; in assay [1], -0.0583; in assay [2], -0.0456; in assay [3], 0.0261; in [4], 0.0013; in assay [5], -0.0325. In addition, the Bliss excess in assay [6] is -0.0348; in assay [7], -0.0074; in [8], -0.0896; in assay [9] it was -0.0473; in assay [10], -0.0442; in the assay on SK-N-SH (Neuroblastoma), -0.0217. The Bliss excess is -0.0011 in assay [11] and 0.0226 in assay [12].
As for `CN(C)CCCOc1ccc(-c2ccc3ncc4c(c3c2)n(C2CCOCC2)c(=O)n4C)cn1` [AZD0156] + C=CCn1c(=O)c2cnc(Nc3ccc(N4CCN(C)CC4)cc3)nc2n1-c1cccc(C(C)(C)O)n1 [AZD1775] (first compound max 1 µM, partner max 1 µM), the Bliss excess in the assay on AM-38 (Glioblastoma) is 0.0248; in [1] it was -0.0547; in assay [2], -0.0068; in assay [3], -0.0898; in assay [4] it was 0.0227; in [5], -0.0467. Moreover, the Bliss excess in [6] is -0.0386; in [7], 0.0179; in assay [8] it was -0.061; in assay [9], -0.0388; in [10], -0.0523; in the assay with SK-N-SH (Neuroblastoma) it was -0.0533. Also, the Bliss excess was -0.0554 in assay [11] and -0.0334 in assay [12].
Turning to `COc1cccc(OCCCN)c1-c1cc(Nc2cnc(C#N)cn2)n[nH]1` [Prexasertib] + CCc1c2c(nc3ccc(O)cc13)-c1cc3c(c(=O)n1C2)COC(=O)[C@]3(O)CC [SN-38] (first compound max 1 µM, 7x7, partner max 0.3 µM), the Bliss excess is -0.0317 with AM-38 (Glioblastoma); 0.0172 in assay [1]; -0.0012 in [2]; 0.0454 in assay [3]; -0.0112 in assay [4]; -0.105 in [5]. The Bliss excess was -0.0269 in [6]; -0.0164 in [7]; -0.0065 in assay [8]; -0.007 in assay [9]; -0.074 in assay [10]; -0.0778 in the assay on SK-N-SH (Neuroblastoma). Further, the Bliss excess was 0.0169 in [11] and 0.0357 in [12].
For the molecule `C=CCn1c(=O)c2cnc(Nc3ccc(N4CCN(C)CC4)cc3)nc2n1-c1cccc(C(C)(C)O)n1` [AZD1775] + C[C@@H]1COCCN1C2=NC(=NC(=C2)C3(CC3)[S@](=N)(=O)C)C4=C5C=CNC5=NC=C4 [AZD6738] (first compound max 1 µM, partner max 10 µM), the Bliss excess in the assay on AM-38 (Glioblastoma) was 0.0618; in assay [1], -0.0047; in [2] it was 0.0477; in [3] it was 0.031; in assay [4] it was 0.0735; in assay [5], -0.0028. The Bliss excess in assay [6] was 0.0012; in [7] it was 0.0928; in assay [8] it was 0.0571; in [9], -0.0229; in [10], -0.0067; with SK-N-SH (Neuroblastoma), -0.0285. Moreover, the Bliss excess in assay [11] is -0.0095; in [12], 0.0019.
Regarding `CN(C)CCCOc1ccc(-c2ccc3ncc4c(c3c2)n(C2CCOCC2)c(=O)n4C)cn1` [AZD0156] + C[C@@H]1COCCN1C2=NC(=NC(=C2)C3(CC3)[S@](=N)(=O)C)C4=C5C=CNC5=NC=C4 [AZD6738] (first compound max 1 µM, 7x7, partner max 10 µM), the Bliss excess with AM-38 (Glioblastoma) is 0.0677; in assay [1], -0.0265; in [2], -0.0241; in [3], -0.0286; in [4] it was 0.0472; in [5], -0.0603. For the same molecule, the Bliss excess in [6] is -0.0279; in [7], 0.0152; in assay [8] it was -0.0531; in assay [9], -0.0116; in [10], -0.0865; in the assay with SK-N-SH (Neuroblastoma), -0.115. In addition, the Bliss excess is -0.0414 in assay [11] and -0.0456 in assay [12].
`Cc1c2c(nn1C)CSCc1cc(n(C)n1)CSc1cc(c3ccccc3c1)OCCCc1c(C(=O)O)n(C)c3c-2c(Cl)ccc13` [AZD5991] + CC1(C)CCC(CN2CCN(c3ccc(C(=O)NS(=O)(=O)c4ccc(NCC5CCOCC5)c([N+](=O)[O-])c4)c(Oc4cnc5[nH]ccc5c4)c3)CC2)=C(c2ccc(Cl)cc2)C1 [Venetoclax] (first compound max 1 µM, 7x7, partner max 1 µM): the Bliss excess in the assay on AM-38 (Glioblastoma) is -0.0091; in assay [1] it was -0.0254; in assay [2] it was -0.007; in assay [3] it was -0.0563; in assay [4], 0.0266; in [5], -0.03. Moreover, the Bliss excess in assay [6] was 0.13; in [7] it was 0.285; in [8] it was -0.0335; in assay [9], 0.0101; in assay [10], -0.0378; in the assay on SK-N-SH (Neuroblastoma), 0.151. The Bliss excess is -0.0736 in assay [11] and -0.129 in [12].
`Cc1cc2ncnn2cc1Nc1ncc2c(n1)n(C1CCOCC1)c(=O)n2C` [AZD7648] + C=CCn1c(=O)c2cnc(Nc3ccc(N4CCN(C)CC4)cc3)nc2n1-c1cccc(C(C)(C)O)n1 [AZD1775] (first compound max 10 µM, partner max 1 µM): the Bliss excess in the assay with AM-38 (Glioblastoma) is 0.0125; in assay [1] it was 0.0119; in assay [2], -0.0108; in assay [3] it was 0.0217; in assay [4], 0.0144; in [5], 0.0106. For the same molecule, the Bliss excess in assay [6] was -0.0066; in [7] it was 0.0014; in assay [8], -0.0102; in assay [9] it was -0.0065; in assay [10] it was -0.0846; in the assay on SK-N-SH (Neuroblastoma), -0.0069. Moreover, the Bliss excess was -0.0257 in assay [11] and 0.0306 in [12].
For the molecule `C=CCn1c(=O)c2cnc(Nc3ccc(N4CCN(C)CC4)cc3)nc2n1-c1cccc(C(C)(C)O)n1` [AZD1775] + O=C(c1cc(Cc2n[nH]c(=O)c3ccccc23)ccc1F)N1CCN(C(=O)C2CC2)CC1 [Olaparib] (first compound max 1 µM, partner max 10 µM), the Bliss excess in the assay on AM-38 (Glioblastoma) is -0.0018; in assay [1] it was -0.0099; in [2], -0.0513; in assay [3] it was -0.0373; in assay [4], 0.021; in [5], -0.0352. Also, the Bliss excess in [6] is -0.0237; in [7] it was -0.0021; in assay [8] it was -0.0005; in assay [9] it was -0.0474; in assay [10], -0.0858; with SK-N-SH (Neuroblastoma), -0.0947. Moreover, the Bliss excess is -0.0577 in [11] and -0.0444 in assay [12].
Consider `CC1(C)CCC(CN2CCN(c3ccc(C(=O)NS(=O)(=O)c4ccc(NCC5CCOCC5)c([N+](=O)[O-])c4)c(Oc4cnc5[nH]ccc5c4)c3)CC2)=C(c2ccc(Cl)cc2)C1` [Venetoclax] + C[C@@H]1COCCN1C2=NC(=NC(=C2)C3(CC3)[S@](=N)(=O)C)C4=C5C=CNC5=NC=C4 [AZD6738] (first compound max 1 µM, 7x7, partner max 10 µM), for which the Bliss excess with AM-38 (Glioblastoma) was 0.0223; in [1], -0.0395; in assay [2], -0.01; in [3], -0.0282; in assay [4], 0.0201; in assay [5], -0.0032. The Bliss excess in assay [6] is -0.0216; in assay [7], 0.154; in assay [8], -0.0484; in assay [9], -0.0144; in assay [10] it was -0.103; in the assay on SK-N-SH (Neuroblastoma), -0.0671. The Bliss excess in assay [11] was -0.0801; in [12], -0.0036.
